Where two headings read alike, the source gives them in different places.
Legend:
Type in all cases: cell-based
KU1919.1 = experiment: Cell Titer Glo (CTG) proliferation assay, KU1919; conditions: KU1919.1 cells, 72.0 hrs., read-out: AVE CTG Proliferation KU1919.1 72.0 hrs.
Description: (§1) Seed cells in 40 μL of cell culture media into each well of 384-well cell culture plate, spin them at room temperature at 1,000 RPM for 1 minute and then transfer the plates into 37° C. 5% CO2 incubator overnight. Next day, treat cells with 40 nL of diluted compound and return to incubator. After compound treatment for 3 days, Add 30 μL of CellTiter-Glo reagent (Promega) into each well to be detected. Then place the plates at room temperature for 30 min followed by reading on EnVision. Inhibition activity calculated as % DMSO=100×(LumSample-Lum low control)/(Lum high control-Lum low control) where high control is from cells treated with 0.1% DMSO and Low control obtained from PBS only. Use XLFit (equation 201) to calculate IC50 (A+ ((B−A)/(1[…]((x/C)^D)))) where A: Bottom, B: Top, C: IC50, D: Slope.

MDAMB231.1 = experiment: Cell Titer Glo (CTG) proliferation assay, MDA-MB-231; conditions: MDAMB231.1 cells, 72 hrs., read-out: AVE CTG Proliferation MDAMB231.1 72 hrs.
Description: as §1

MDAMB468.1 = experiment: Cell Titer Glo (CTG) proliferation assay, MDA-MB-468; conditions: MDAMB468.1 cells, 72.0 hrs., read-out: AVE CTG Proliferation MDAMB468.1 72.0 hrs.
Description: as §1

Structure (SMILES) | IC50 (MDAMB231.1; Homo sapiens, MDA-MB-231) | IC50 (MDAMB468.1; Homo sapiens, MDA-MB-468) | IC50 (KU1919.1; Homo sapiens, KU-19-19) | IC50 (KU1919.1) | IC50 (MDAMB231.1) | IC50 (MDAMB468.1)
CCc1cccc(-c2cnc(C(=O)N3CCC(OC4CCN(CC(=O)NCCNC[C@@H](C(=O)N5CCN(c6ncnc7c6[C@H](C)C[C@H]7O)CC5)c5ccc(Cl)cc5)CC4)CC3)c(NC(C)=O)c2)c1 [Compound I-196] | 5 to 10 µM | 5 to 10 µM | 1 to 5 µM | – | – | –
NC1(C(=O)N[C@@H](CCN2CCN(C(=O)CN3CCC(OC4CCN(C(=O)[C@H](NC(=O)c5ccc(C6CN(C(=O)CNCc7ccc(F)cc7F)C6)cc5)C5CCCCC5)CC4)CC3)CC2)c2ccc(Cl)cc2)CCN(c2ncnc3[nH]ccc23)CC1 [Compound I-230] | 1 to 5 µM | 1 to 5 µM | 1 to 5 µM | – | – | –
C[C@@H]1C[C@@H](O)c2ncnc(N3CCN(C(=O)C(CN4CCC(CN5CCN(C(=O)[C@H](NC(=O)c6cccc([C@H]7CCCN(C(=O)CNC8CC8)C7)c6)C6CCCCC6)CC5)CC4)c4ccc(Cl)cc4)CC3)c21 (some centres unmarked) [Compound I-211] | 1 to 5 µM | 1 to 5 µM | 0.5 to 1 µM | – | – | –
NC1(C(=O)N[C@@H](CCN2CCN(C(=O)CN3CCC(OC4CCN(C(=O)[C@H](NC(=O)c5cc(C6CN(C(=O)CNCc7ccc(F)cc7F)C6)ccc5F)C5CCCCC5)CC4)CC3)CC2)c2ccc(Cl)cc2)CCN(c2ncnc3[nH]ccc23)CC1 [Compound I-226] | 1 to 5 µM | 1 to 5 µM | 0.5 to 1 µM | – | – | –
C[C@@H]1C[C@@H](O)c2ncnc(N3CCN(C(=O)[C@H](CNCCNC(=O)CN4CCC(CN5CCN(C(=O)[C@H](NC(=O)c6cccc(C7CCCN(C(=O)CNCc8ccc(F)cc8F)C7)c6)C6CCCCC6)CC5)CC4)c4ccc(Cl)cc4)CC3)c21 (some centres unmarked) [Compound I-204] | 1 to 5 µM | 1 to 5 µM | 1 to 5 µM | – | – | –
C[C@@H]1C[C@@H](O)c2ncnc(N3CCN(C(=O)[C@H](CNCCNC(=O)CN4CCC(CN5CCN(C(=O)c6cccc(C7CCCN(C(=O)CNC8CC8)C7)c6)CC5)CC4)c4ccc(Cl)cc4)CC3)c21 (some centres unmarked) [Compound I-206] | > 10 µM | > 10 µM | > 10 µM | – | – | –
NC1(C(=O)N[C@@H](CCO)c2ccc(Cl)cc2)CCN(c2nc[nH]c3nccc2-3)CC1 [AZD-5363, Capivasertib, reference compound] | – | – | – | > 10 µM | > 10 µM | > 10 µM
NC1(C(=O)N[C@@H](CCN2CCN(C(=O)CN3CCC(OC4CCN(C(=O)[C@H](NC(=O)c5cc(C6CN(C(=O)C7CC7)C6)ccc5F)C5CCCCC5)CC4)CC3)CC2)c2ccc(Cl)cc2)CCN(c2ncnc3[nH]ccc23)CC1 [Compound I-227] | 1 to 5 µM | 1 to 5 µM | 1 to 5 µM | – | – | –
CCc1cccc(-c2cnc(C(=O)NCCOCCNCC(=O)NCCN(C[C@@H](C(=O)N3CCN(c4ncnc5c4[C@H](C)C[C@H]5O)CC3)c3ccc(Cl)cc3)C(C)C)c(N)c2)c1 [Compound I-217] | – | 1 to 5 µM | 1 to 5 µM | – | – | –
C[C@@H]1C[C@@H](O)c2ncnc(N3CCN(C(=O)[C@H](CNCCNC(=O)CNC45CCC(CN6CCN(C(=O)[C@H](NC(=O)c7cccc(C8CCCN(C(=O)C9CC9)C8)c7)C7CCCCC7)CC6)(CC4)OC5)c4ccc(Cl)cc4)CC3)c21 (some centres unmarked) [Compound I-215] | – | > 10 µM | > 10 µM | – | – | –
CCc1cccc(-c2cnc(C(=O)N3CCN(CC45CCC(NCC(=O)NCCNC[C@@H](C(=O)N6CCN(c7ncnc8c7[C@H](C)C[C@H]8O)CC6)c6ccc(Cl)cc6)(CC4)CO5)CC3)c(N)c2)c1 [Compound I-195] | – | > 10 µM | > 10 µM | – | – | –
CC(C)N(CCNC(=O)CN1CCC(CN2CCN(C(=O)[C@H](NC(=O)c3cccc(C4CCCN(C(=O)CNCc5ccc(F)cc5F)C4)c3)C3CCCCC3)CC2)CC1)C[C@@H](C(=O)N1CCN(c2ncnc3c2[C@H](C)C[C@H]3O)CC1)c1ccc(Cl)cc1 (some centres unmarked) [Compound I-200] | – | 1 to 5 µM | 1 to 5 µM | – | – | –
CCc1cccc(-c2cnc(C(=O)N3CCC(OC4CCN(CC(=O)NCCNC[C@@H](C(=O)N5CCN(c6ncnc7c6[C@H](C)C[C@H]7O)CC5)c5ccc(Cl)cc5)CC4)CC3)c(N)c2)c1 [Compound I-194] | – | 5 to 10 µM | 5 to 10 µM | – | – | –
CCc1cccc(-c2cnc(C(=O)N3CCC(OC4CCN(CC(=O)NCCNC[C@@H](C(=O)N5CCN(c6ncnc7c6[C@H](C)C[C@H]7O)CC5)c5ccc(Cl)cc5)CC4)CC3)c(NC(=O)CNCc3ccncn3)c2)c1 [Compound I-167] | – | > 10 µM | > 10 µM | – | – | –
CCOc1cc(OC)ccc1CNCC(=O)N1CCCC(c2cccc(C(=O)N[C@@H](C(=O)N3CCN(CC4CCN(CC(=O)NCCN(C[C@@H](C(=O)N5CCN(c6nncc7c6[C@H](C)C[C@H]7O)CC5)c5ccc(Cl)cc5)C(C)C)CC4)CC3)C3CCCCC3)c2)C1 (some centres unmarked) [Compound I-171] | – | 1 to 5 µM | 0.5 to 1 µM | – | – | –
NC1(C(=O)N[C@@H](CCN2CCN(C(=O)CN3CCC(OC4CCN(C(=O)c5cc(C6CCCN(C(=O)CNCc7ccc(F)cc7F)C6)ccc5F)CC4)CC3)CC2)c2ccc(Cl)cc2)CCN(c2ncnc3[nH]ccc23)CC1 (some centres unmarked) [Compound I-223] | – | 1 to 5 µM | 1 to 5 µM | – | – | –
CCc1cccc(-c2cnc(C(=O)N3CCC(CN4CCN(CC(=O)NCCNC[C@@H](C(=O)N5CCN(c6ncnc7c6[C@H](C)C[C@H]7O)CC5)c5ccc(Cl)cc5)CC4)CC3)c(NC(=O)CN3CCOCC3)c2)c1 [Compound I-172] | – | 5 to 10 µM | 5 to 10 µM | – | – | –

Continued, in another order:

IC50 (MDAMB231.1; Homo sapiens, MDA-MB-231) | IC50 (MDAMB468.1; Homo sapiens, MDA-MB-468) | Structure (SMILES) | IC50 (KU1919.1; Homo sapiens, KU-19-19) | IC50 (KU1919.1) | IC50 (MDAMB231.1) | IC50 (MDAMB468.1)
5 to 10 µM | 1 to 5 µM | NC1(C(=O)N[C@@H](CCN2CCN(C(=O)CN3CCC(OC4CCN(C(=O)[C@H](NC(=O)c5cccc(C6CN(C(=O)CNC7CC7)C6)c5)C5CCCCC5)CC4)CC3)CC2)c2ccc(Cl)cc2)CCN(c2ncnc3[nH]ccc23)CC1 [Compound I-241] | 1 to 5 µM | – | – | –
< 0.5 µM | 1 to 5 µM | NC1(C(=O)N[C@@H](CCN2CCC(OC3CCN(C(=O)c4c(F)cc(-c5ccccc5)cc4F)CC3)CC2)c2ccc(Cl)cc2)CCN(c2ncnc3[nH]ccc23)CC1 [Compound I-281] | 1 to 5 µM | – | – | –
1 to 5 µM | 1 to 5 µM | NC1(C(=O)N[C@@H](CCN2CCN(C(=O)CN3CCC(OC4CCN(C(=O)[C@H](NC(=O)c5cccc(C6CCCN(C(=O)CNC7CC7)C6)c5)C5CCCCC5)CC4)CC3)CC2)c2ccc(Cl)cc2)CCN(c2ncnc3[nH]ccc23)CC1 (some centres unmarked) [Compound I-259] | 1 to 5 µM | – | – | –
> 10 µM | 5 to 10 µM | NC1(C(=O)N[C@@H](CCN2CCC(OC3CCN(C(=O)c4cccc(C5CCCN(C(=O)CNC6CC6)C5)c4)CC3)CC2)c2ccc(Cl)cc2)CCN(c2ncnc3[nH]ccc23)CC1 (some centres unmarked) [Compound I-252] | 5 to 10 µM | – | – | –
1 to 5 µM | 1 to 5 µM | C[C@@H]1C[C@@H](O)c2ncnc(N3CCN(C(=O)C(CN4CCC(CN5CCN(C(=O)[C@H](NC(=O)c6cccc([C@@H]7CCCN(C(=O)C8CC8)C7)c6F)C6CCCCC6)CC5)CC4)c4ccc(Cl)cc4)CC3)c21 (some centres unmarked) [Compound I-278] | 0.5 to 1 µM | – | – | –
1 to 5 µM | 1 to 5 µM | CCc1cccc(-c2cc(F)c(C(=O)N3CCN(CC4CCN(CC(C(=O)N5CCN(c6ncnc7c6[C@H](C)C[C@H]7O)CC5)c5ccc(Cl)cc5)CC4)CC3)c(F)c2)c1 (some centres unmarked) [Compound I-262] | 0.5 to 1 µM | – | – | –
1 to 5 µM | 1 to 5 µM | CC1(C(=O)N2CCCC(c3cccc(C(=O)N[C@@H](C(=O)N4CCC(OC5CCN(CC[C@H](NC(=O)C6(N)CCN(c7ncnc8[nH]ccc78)CC6)c6ccc(Cl)cc6)CC5)CC4)C4CCCCC4)c3F)C2)CC1 (some centres unmarked) [Compound I-282] | 1 to 5 µM | – | – | –
– | 1 to 5 µM | CCc1cccc(-c2cnc(C(=O)N3CCC(OC4CCN(CC(=O)NCCNC[C@@H](C(=O)N5CCN(c6ccnc7c6[C@H](C)C[C@H]7O)CC5)c5ccc(Cl)cc5)CC4)CC3)c(NC(=O)OC(C)(C)C)c2)c1 [Compound I-304] | 1 to 5 µM | – | – | –
